According to patent publication US20250296971A1, “GASTRIC INHIBITORY PEPTIDE RECEPTOR LIGANDS” (priority 2021, published 2025):
Where two headings read alike, the source gives them in different places. *1 amine or outer side, *2 acyl side, *3 side chain or, on linkers, in order; H or OH if unused. Where a SMILES comes first, the peptide text is derived from it. Bridges are numbered along the chain shown (N, C = ends). Side-chain parts run from the residue outwards. [ ]: non-standard residue; d: D form. The star is where a group is joined. X27 = O=C1CN2CCN3CCN(CC(=O)*)CCN(CC2)CC(=O)[O][Eu]([O]1)[O]C(=O)C3; NH(1-deoxy-D-glucityl) = OC[C@@H](O)[C@@H](O)[C@H](O)[C@@H](O)CN*; X9 = O=C(O)CN1CCN(CC(=O)O)CCN([C@H](CCC(=O)*)C(=O)O)CC1; Trp(5-Cl) = N[C@@H](Cc1c[nH]c2ccc(Cl)cc12)C(=O)O; Pyridine(2,6-diCH2) = c1cc(C[*:1])nc(C[*:2])c1; X22 = O=C([C@H](Cc1cccc(Cl)c1Cl)N[*:1])[*:2]; Pro(4R-NH2) = N[C@H]1CN[C@H](C(=O)O)C1; 1Nal = N[C@@H](Cc1cccc2ccccc12)C(=O)O; mXylylene = c1cc(C[*:1])cc(C[*:2])c1; Glutaryl = O=C(CCCC(=O)[*:2])[*:1]; Hyp = O=C(O)[C@@H]1C[C@@H](O)CN1; X1 = O=C(CN1CCC(N[*:1])CC1)[*:2]; Suc = O=C(CCC(=O)[*:2])[*:1]; hLeu = CC(C)CC[C@H](N)C(=O)O; Api = NC1(C(=O)O)CCNCC1; Thp = NC1(C(=O)O)CCOCC1; Aib = CC(C)(N)C(=O)O; Nlys = NCCCCNCC(=O)O

Target: T1, GIPR (CHO-K1-hGIPR cells) (Homo sapiens, UniProt P48546)
T1 construct: host or cells: CHO-K1
T1 sequence (P48546 22-466): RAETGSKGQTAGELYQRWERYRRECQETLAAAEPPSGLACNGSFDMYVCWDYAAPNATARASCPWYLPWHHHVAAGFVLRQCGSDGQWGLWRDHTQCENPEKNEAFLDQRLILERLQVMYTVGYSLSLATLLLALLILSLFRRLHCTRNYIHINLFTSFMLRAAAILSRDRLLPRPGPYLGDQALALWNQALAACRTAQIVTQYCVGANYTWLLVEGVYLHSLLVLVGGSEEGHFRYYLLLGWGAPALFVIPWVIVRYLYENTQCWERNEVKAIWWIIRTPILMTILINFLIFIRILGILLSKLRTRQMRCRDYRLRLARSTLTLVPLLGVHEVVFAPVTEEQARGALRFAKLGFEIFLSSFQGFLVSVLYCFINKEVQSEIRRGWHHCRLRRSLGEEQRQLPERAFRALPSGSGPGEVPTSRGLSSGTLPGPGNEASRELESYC
Assay: FACS binding assay
Method in brief: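 Peptide binding read by flow cytometry as APC-channel median fluorescence, fitted with a four-parameter logistic to yield EC50 or IC50. Cells were hGIPR-transfected CHO-K1 in PBS with 1% FCS, detected with 1 μg/mL APC-streptavidin, 30 min on ice.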

[1] = competition with 20 nM GIP-057, 4° C., 1 hour, read-out: pIC50 Category (converted)
[2] = competition with 20 nM GIP-057, 4° C. for 1 hour, read-out: pIC50 Category (converted)

Row | SMILES | IC50 [1] | further results
1 | CC[C@H](C)[C@@H]1NC(=O)[C@H](CC(C)C)NC(=O)C2(CCOCC2)NC(=O)[C@@H](NC(=O)[C@@H](CC(C)C)NC(=O)[C@H](CCC(=O)O)NC(=O)[C@@H]2C[C@@H](O)CN2C(=O)[C@H](Cc2c[nH]c3ccc(Cl)cc23)NC(=O)[C@H](Cc2c[nH]c3ccccc23)NC(=O)[C@H](CC(N)=O)NC(C)=O)CSCc2cccc(n2)CSC[C@@H](C(N)=O)NC1=O [GIP-190, Ac-Asn-Trp-5Clw-Hyp-Glu-leu-[Cys(2Lut)-Thp-Leu-Ile-Cys]-NH2] (Ac-NW[Trp(5-Cl)][Hyp]E[dL]C[Thp]LIC-NH2; linker 7-11 via Pyridine(2,6-diCH2)) | < 10 nM | –
2 | CC[C@H](C)[C@@H]1NC(=O)[C@H](CC(C)C)NC(=O)C2(CCOCC2)NC(=O)[C@@H](NC(=O)[C@@H](CC(C)C)NC(=O)[C@H](CCC(=O)O)NC(=O)CN(CCCCN)C(=O)[C@H](Cc2c[nH]c3ccc(Cl)cc23)NC(=O)[C@H](Cc2c[nH]c3ccccc23)NC(=O)[C@H](CC(=O)O)NC(C)=O)CSCc2cccc(n2)CSC[C@@H](C(N)=O)NC1=O [GIP-186, Ac-Asp-Trp-5Clw-Nlys-Glu-leu-[Cys(2Lut)-Thp-Leu-Ile-Cys]-NH2] (Ac-DW[Trp(5-Cl)][Nlys]E[dL]C[Thp]LIC-NH2; linker 7-11 via Pyridine(2,6-diCH2)) | < 10 nM | –
3 | CC[C@H](C)[C@@H]1NC(=O)[C@H](CC(C)C)NC(=O)C2(CCN(C(=O)CNC(=O)CC[C@H](C(=O)O)N3CCN(CC(=O)O)CCN(CC(=O)O)CC3)CC2)NC(=O)[C@@H](NC(=O)[C@@H](CC(C)C)NC(=O)[C@H](CCC(=O)O)NC(=O)[C@@H]2C[C@@H](N)CN2C(=O)[C@H](Cc2c[nH]c3ccc(Cl)cc23)NC(=O)[C@H](Cc2c[nH]c3ccccc23)NC(=O)[C@H](CC(=O)O)NC(=O)CCCC(=O)NC[C@H](O)[C@@H](O)[C@H](O)[C@H](O)CO)CSCc2cccc(n2)CSC[C@@H](C(=O)NC2CCN(CC(=O)N[C@H](CCC(=O)NC[C@H](O)[C@@H](O)[C@H](O)[C@H](O)CO)C(N)=O)CC2)NC1=O [GIP-031, AGLU-Glutar-Asp-Trp-5Clw-Tap-Glu-leu-[Cys(2Lut)-Apc(NODAGA-Gly)-Leu-Ile-Cys]-APAc-glu(AGLU)-NH2] ({NH(1-deoxy-D-glucityl)-Glutaryl}-DW[Trp(5-Cl)][Pro(4R-NH2)]E[dL]C[Api]([Gly-X9])LIC[X1][dE](NH(1-deoxy-D-glucityl))-NH2; linker 7-11 via Pyridine(2,6-diCH2)) | < 10 nM | –
4 | CC[C@H](C)[C@@H]1NC(=O)[C@H](CC(C)C)NC(=O)C2(CCOCC2)NC(=O)[C@@H](NC(=O)[C@@H](CC(C)C)NC(=O)[C@H](CCC(=O)O)NC(=O)[C@@H]2C[C@@H](O)CN2C(=O)[C@H](Cc2cccc(Cl)c2Cl)NC(=O)[C@H](Cc2c[nH]c3ccccc23)NC(=O)[C@H](CC(=O)O)NC(C)=O)CSCc2cccc(n2)CSC[C@@H](C(N)=O)NC1=O [GIP-265, Ac-Asp-Trp-Egp-Hyp-Glu-leu-[Cys(2Lut)-Thp-Leu-Ile-Cys]-NH2] (Ac-DW[X22][Hyp]E[dL]C[Thp]LIC-NH2; linker 7-11 via Pyridine(2,6-diCH2)) | – | IC50 [2]: 10 to 79.4 nM
5 | CC[C@H](C)[C@@H]1NC(=O)[C@H](CC(C)C)NC(=O)C2(CCOCC2)NC(=O)[C@@H](NC(=O)[C@@H](CC(C)C)NC(=O)[C@H](CCC(=O)O)NC(=O)[C@@H]2CCCN2C(=O)[C@H](Cc2c[nH]c3ccc(Cl)cc23)NC(=O)[C@H](Cc2c[nH]c3ccccc23)NC(=O)CCC(=O)O)CSCc2cccc(c2)CSC[C@@H](C(N)=O)NC1=O [GIP-199] (Suc-W[Trp(5-Cl)]PE[dL]C[Thp]LIC-NH2; linker 6-10 via mXylylene) | < 10 nM | –
6 | CC[C@H](C)[C@@H]1NC(=O)[C@H](CC(C)C)NC(=O)C2(CCOCC2)NC(=O)[C@@H](NC(=O)[C@@H](CC(C)C)NC(=O)[C@H](CCC(=O)O)NC(=O)[C@@H]2C[C@@H](O)CN2C(=O)[C@H](Cc2c[nH]c3ccc(Cl)cc23)NC(=O)[C@H](Cc2c[nH]c3ccccc23)NC(=O)[C@H](CC(=O)O)NC(=O)CN2CCC(NC(=O)[C@@H](CCC(=O)NC[C@H](O)[C@@H](O)[C@H](O)[C@H](O)CO)NC(=O)CN3CCN4CCN5CCN(CC3)CC(=O)[O][Eu]([O]C(=O)C4)[O]C(=O)C5)CC2)CSCc2cccc(n2)CSC[C@@H](C(=O)NC2CCN(CC(=O)N[C@H](CCC(=O)NC[C@H](O)[C@@H](O)[C@H](O)[C@H](O)CO)C(N)=O)CC2)NC1=O [GIP-064, Europium-Complex of DOTA-glu(AGLU)-APAc-Asp-Trp-5Clw-Hyp-Glu-leu-[Cys(2Lut)-Thp-Leu-Ile-Cys]-APAc-glu(AGLU)-NH2] (X27-[dE](NH(1-deoxy-D-glucityl))[X1]DW[Trp(5-Cl)][Hyp]E[dL]C[Thp]LIC[X1][dE](NH(1-deoxy-D-glucityl))-NH2; linker 9-13 via Pyridine(2,6-diCH2)) | – | IC50 (pIC50 Category, competition with 20 nM GIP-057, 4° C., 1 hour): < 10 nM
7 | CC[C@H](C)[C@@H]1NC(=O)[C@H](CC(C)C)NC(=O)C(C)(C)NC(=O)[C@@H](NC(=O)[C@H](CCC(C)C)NC(=O)[C@H](CCC(=O)O)NC(=O)[C@@H]2CCCN2C(=O)[C@H](Cc2cccc3ccccc23)NC(=O)[C@H](Cc2c[nH]c3ccccc23)NC(=O)[C@H](CC(=O)O)NC(C)=O)CSCc2cccc(c2)CSC[C@@H](C(N)=O)NC1=O [GIP-315, Ac-Asp-Trp-1Ni-Pro-Glu-Hle-[Cys(3MeBn)-Aib-Leu-Ile-Cys]-NH2] (Ac-DW[1Nal]PE[hLeu]C[Aib]LIC-NH2; linker 7-11 via mXylylene) | – | IC50 [2]: 100 to 794 nM
